Data as given in patent publication US11414416B1, “Compounds and uses thereof” (Foghorn Therapeutics Inc., priority 2019, dated 2022).

Target: Nanoluciferase-BRD9 fusion protein (Homo sapiens (Human), UniProt Q9H8M2)
Test: SYO1 BRD9 NanoLuc degradation assay
Assay type: cell-based
Details: Table 5A; SYO-1 cells expressing 3×FLAG-NLuc-BRD9, 6 hours
Experimental: Procedure: A stable SYO-1 cell line expressing 3×FLAG-NLuc-BRD9 was generated. On day 0 cells were seeded in 30 μL media into each well of 384-well cell culture plates. The seeding density was 8000 cells/well. […] Subsequently plates were incubated for 6 hours in a standard tissue culture incubator and equilibrated at room temperature for 15 minutes. Nanoluciferase activity was measured by adding 15 μL of freshly prepared Nano-Glo Luciferase Assay Reagent (Promega N1130), shaking the plates for 10 minutes and reading the bioluminescence using an EnVision reader.
DMSO treated cells are employed as High Control (HC) and 1 μM of a known BRD9 degrader standard treated cells are employed as Low Control (LC).

Nanoluciferase-BRD9 fusion protein, sequence (Q9H8M2 whole entry, the tested form may be a part): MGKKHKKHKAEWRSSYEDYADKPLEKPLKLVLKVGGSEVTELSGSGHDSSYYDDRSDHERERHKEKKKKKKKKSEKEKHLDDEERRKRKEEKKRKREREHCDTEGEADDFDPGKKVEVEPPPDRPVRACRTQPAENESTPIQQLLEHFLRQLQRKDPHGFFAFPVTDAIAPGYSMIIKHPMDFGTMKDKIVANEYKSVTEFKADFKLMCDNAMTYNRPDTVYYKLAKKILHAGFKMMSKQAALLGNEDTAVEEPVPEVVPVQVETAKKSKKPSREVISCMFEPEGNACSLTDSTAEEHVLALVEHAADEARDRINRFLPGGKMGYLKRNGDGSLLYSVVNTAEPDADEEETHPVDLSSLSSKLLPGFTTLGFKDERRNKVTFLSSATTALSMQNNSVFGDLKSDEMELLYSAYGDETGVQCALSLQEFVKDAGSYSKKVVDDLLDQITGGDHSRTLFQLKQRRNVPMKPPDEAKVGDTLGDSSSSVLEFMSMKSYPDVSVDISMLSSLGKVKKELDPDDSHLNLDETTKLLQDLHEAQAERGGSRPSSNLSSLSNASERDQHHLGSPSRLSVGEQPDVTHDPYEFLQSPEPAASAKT

SMILES	IC50
COc1cc(-c2cn(C)c(=O)c3cnccc23)cc(OC)c1CN1CC2(CCN(C(=O)CCOCCOc3cccc4c3C(=O)N(C3CCC(=O)NC3=O)C4=O)C2)C1 (centres unmarked) [Compound D90]	10 to 100 nM

Same assay, conditions: Table 5A; SYO-1 cells expressing 3×FLAG-NLuc-BRD9, 6 hours; read-out: SYO1 BRD9-NanoLuc degradation IC50

SMILES	DC50
COc1cc(-c2cn(C)c(=O)c3cnccc23)cc(OC)c1CN1CC[C@H]1C(=O)NCCCCCCCCNc1cccc2c1C(=O)N([C@@H]1CCC(=O)NC1=O)C2=O (stereo in doubt) [Compound D18, (2S)-1-((2,6-dimethoxy-4-(2-methyl-1-oxo-2,7-naphthyridin-4-yl)phenyl)methy)-N-(8-((2-((R)-2,6-dioxopiperidin-3-yl)-1,3-dioxoisoindol-4-yl)amino)octyl) azetidine-2-carboxamide]	< 10 nM

Same assay, conditions: Table 5B; SYO-1 cells expressing 3×FLAG-NLuc-BRD9, 6 hours; read-out: SYO1 BRD9-NanoLuc degradation IC50

SMILES	DC50
COc1cc(-c2cn(C)c(=O)c3cnccc23)cc(OC)c1CN(C)CCCCN1CCC2C1CN2c1ccc2c(c1)C(=O)N(C1CCC(=O)NC1=O)C2=O (centres unmarked) [Compound D227]	< 10 nM
COc1cc(-c2cc(C)c(=O)n(C)c2)cc(OC)c1CN1CCC2(C1)CN(c1ccc3c(c1)C(=O)N(C1CCC(=O)NC1=O)C3=O)C2 (centres unmarked) [Compound D337]	< 10 nM
COc1cc(-c2cn(C)c(=O)c3cnccc23)cc(OC)c1CN(C)C(=O)CCCCN1CCC2(CC1)CCN(c1ccc3c(c1)C(=O)N(C1CCC(=O)NC1=O)C3=O)C2 (centres unmarked) [Compound D202]	< 10 nM
COc1cc(-c2cn(C)c(=O)c3cnccc23)cc(OC)c1CN1CCC(c2nc(COc3ccc4c(c3)C(=O)N(C3CCC(=O)NC3=O)C4=O)cs2)CC1 (centres unmarked) [Compound D321]	< 10 nM
COc1cc(-c2cn(C)c(=O)c3cnccc23)cc(OC)c1CN1CC(n2cc(CN3CC(Oc4ccc5c(c4)C(=O)N(C4CCC(=O)NC4=O)C5=O)C3)nn2)C1 (centres unmarked) [Compound D300]	< 10 nM
COc1cc(-c2cn(C)c(=O)c3cnccc23)cc(OC)c1CN(C)C1CCN(CCOc2ccc3c(c2)C(=O)N(C2CCC(=O)NC2=O)C3=O)CC1 (centres unmarked) [Compound D178]	< 10 nM
C=CCn1cc(-c2cc(OC)c(CN3CC(CN4CCC5(CC4)CN(c4ccc6c(c4)C(=O)N(C4CCC(=O)NC4=O)C6=O)C5)C3)c(OC)c2)cc(C)c1=O (centres unmarked) [Compound D348]	< 10 nM
COc1cc(-c2cn(C)c(=O)c3cnccc23)cc(OC)c1CN(C)CCOCCn1cc(CN2CC(Oc3ccc4c(c3)C(=O)N(C3CCC(=O)NC3=O)C4=O)C2)nn1 (centres unmarked) [Compound D294]	100 to 1000 nM
COc1cc(-c2cn(C)c(=O)c3cnccc23)cc(OC)c1CN(C)CCCCN1CC2(CC(Oc3ccc4c(c3)C(=O)N(C3CCC(=O)NC3=O)C4=O)C2)C1 (centres unmarked) [Compound D251]	< 10 nM
COc1cc(-c2cn(C)c(=O)c3cnccc23)cc(OC)c1CN1CC(n2cc(COC3CCN(c4ccc5c(c4)C(=O)N(C4CCC(=O)NC4=O)C5=O)CC3)nn2)C1 (centres unmarked) [Compound D302]	< 10 nM
COc1cc(-c2cn(C)c(=O)c3cnccc23)cc(OC)c1CN1CC(CC(=O)N2CCC3(CC2)CN(c2ccc4c(c2)C(=O)N(C2CCC(=O)NC2=O)C4=O)C3)C1 (centres unmarked) [Compound D180]	< 10 nM
COc1cc(-c2cc(C)c(=O)n(C)c2)cc(OC)c1CN1CCC(n2cc([C@H](C)Oc3ccc4c(c3)C(=O)N(C3CCC(=O)NC3=O)C4=O)nn2)CC1 (some centres unmarked) [Compound D333]	< 10 nM
COc1cc(-c2cn(C)c(=O)c3cnccc23)cc(OC)c1CN1CC(CC(=O)N2CCC3(CC2)CC(Oc2ccc4c(c2)C(=O)N(C2CCC(=O)NC2=O)C4=O)C3)C1 (centres unmarked) [Compound D184]	< 10 nM
CNC(=O)N(C)Cc1cc(-c2cc(OC)c(CN3CC(CN4CCC5(CC4)CN(c4ccc6c(c4)C(=O)N(C4CCC(=O)NC4=O)C6=O)C5)C3)c(OC)c2)cn(C)c1=O (centres unmarked) [Compound D355]	> 1000 nM
COc1cc(-c2cn(C)c(=O)c3cnn(C)c23)cc(OC)c1CN1CC(CN2CCC3(CC2)CN(c2ccc4c(c2)CN(C2CCC(=O)NC2=O)C4=O)C3)C1 (centres unmarked) [Compound D369]	< 10 nM
COc1cc(-c2cn(C)c(=O)c3cnccc23)cc(OC)c1CN(C)CCCCN1CC2(CCN(c3ccc4c(c3)C(=O)N(C3CCC(=O)NC3=O)C4=O)CC2)C1 (centres unmarked) [Compound D223]	< 10 nM
COc1cc(-c2cc(C)c(=O)n(C)c2)cc(OC)c1CN1CC(C#Cc2ccc3c(c2)C(=O)N(C2CCC(=O)NC2=O)C3=O)C1 (centres unmarked) [Compound D335]	< 10 nM
COc1cc(-c2cn(C)c(=O)c3cncn23)cc(OC)c1CN1CC(CN2CCC3(CC2)CN(c2ccc4c(c2)CN(C2CCC(=O)NC2=O)C4=O)C3)C1 (centres unmarked) [Compound D363]	< 10 nM
COc1cc(-c2cn(C)c(=O)c3cnccc23)cc(OC)c1CN1CC2(CCN(C(=O)CC#Cc3ccc4c(c3)C(=O)N(C3CCC(=O)NC3=O)C4=O)C2)C1 (centres unmarked) [Compound D311]	10 to 100 nM
COc1cc(-c2cn(C)c(=O)c3cnccc23)cc(OC)c1CN1CCC2C(C1)CN2C(=O)CC#Cc1ccc2c(c1)C(=O)N(C1CCC(=O)NC1=O)C2=O (centres unmarked) [Compound D315]	< 10 nM
COc1cc(-c2cn(C)c(=O)c3cncn23)cc(OC)c1CN1CC(CN2CCC3(CC2)CN(c2ccc4c(c2)C(=O)N(C2CCC(=O)NC2=O)C4)C3)C1 (centres unmarked) [Compound D361]	< 10 nM
COc1cc(-c2cn(C)c(=O)c3cnccc23)cc(OC)c1CN(C)CCCn1cc(CCOc2ccc3c(c2)C(=O)N(C2CCC(=O)NC2=O)C3=O)nn1 (centres unmarked) [Compound D283]	100 to 1000 nM
COc1cc(-c2cn(C)c(=O)c3cnccc23)cc(OC)c1CN(C)CCCn1cc(COC2CN(c3ccc4c(c3)C(=O)N(C3CCC(=O)NC3=O)C4=O)C2)nn1 (centres unmarked) [Compound D286]	10 to 100 nM
COc1cc(-c2cn(C)c(=O)c3cnccc23)cc(OC)c1CN1CC2(CCN(C(=O)CC#Cc3ccc4c(c3)C(=O)N(C3CCC(=O)NC3=O)C4=O)CC2)C1 (centres unmarked) [Compound D312]	< 10 nM
COc1cc(-c2cn(C)c(=O)c3cnccc23)cc(OC)c1CN(C)C(=O)CCCCN1CC2(CCN(c3ccc4c(c3)C(=O)N(C3CCC(=O)NC3=O)C4=O)CC2)C1 (centres unmarked) [Compound D201]	< 10 nM
COc1cc(-c2cn(C)c(=O)c3cnccc23)cc(OC)c1CN1CCC2C(C1)CN2CC#Cc1ccc2c(c1)C(=O)N(C1CCC(=O)NC1=O)C2=O (centres unmarked) [Compound D236]	< 10 nM
COc1cc(-c2cn(C)c(=O)c3cn(C)nc23)cc(OC)c1CN1CC(CN2CCC3(CC2)CN(c2ccc4c(c2)CN(C2CCC(=O)NC2=O)C4=O)C3)C1 (centres unmarked) [Compound D370]	< 10 nM
COc1cc(-c2cn(C)c(=O)c3cnccc23)cc(OC)c1CN(C)CCCCN1CCC2(CC1)CC(Oc1ccc3c(c1)C(=O)N(C1CCC(=O)NC1=O)C3=O)C2 (centres unmarked) [Compound D228]	< 10 nM
COc1cc(-c2cn(C)c(=O)c3cnccc23)cc(OC)c1CN1CCC2(CC1)CCN(CCCC#Cc1ccc3c(c1)C(=O)N(C1CCC(=O)NC1=O)C3=O)C2 (centres unmarked) [Compound D213]	< 10 nM

Same assay, conditions: Table 5C; SYO-1 cells expressing 3×FLAG-NLuc-BRD9, 6 hours

SMILES	IC50
C/C=C/Cn1cc(-c2ccc(CN3CCN(S(=O)(=O)c4ccc5c(c4)C(=O)N(C4CCC(=O)NC4=O)C5)CC3)c(Cl)c2)n2cncc2c1=O (centres unmarked) [Compound D464]	> 1000 nM

Same assay, conditions: Table 5C; SYO-1 cells expressing 3×FLAG-NLuc-BRD9, 6 hours; read-out: SYO1 BRD9-NanoLuc degradation IC50

SMILES	DC50
COc1cc(-c2cn(C)c(=O)c3cnccc23)cc(OC)c1CN1CCC2(CC1)CN(c1ccc3c(c1)C(=O)N(C1CCC(=O)NC1=O)C3)C2 (centres unmarked) [Compound D377]	< 10 nM
COc1cc(-c2cc(C(F)F)c(=O)n(C)c2)cc(OC)c1-c1ccc2c(c1)C(=O)N(C1CCC(=O)NC1=O)C2 (centres unmarked) [Compound D451]	10 to 100 nM
COc1cc(-c2cc(C(F)F)c(=O)n(C)c2)cc(OC)c1C1CN(c2ccc3c(c2)C(=O)N(C2CCC(=O)NC2=O)C3)C1 (centres unmarked) [Compound D455]	< 10 nM
CCc1cc(-c2cn(C)c(=O)c3cnccc23)cc(OC)c1CN1CC(Oc2ccc3c(c2)C(=O)N(C2CCC(=O)NC2=O)C3=O)C1 (centres unmarked) [Compound D385]	< 10 nM
COc1cc(-c2cc(C(F)F)c(=O)n(C)c2)cc(OC)c1CN1CCC2(C1)CN(c1ccc3c(c1)C(=O)N(C1CCC(=O)NC1=O)C3=O)C2 (centres unmarked) [Compound D406]	< 10 nM
COc1cc(-c2cc(C)c(=O)n(C)c2C)cc(OC)c1CN1CCN(c2ccc3c(c2)C(=O)N(C2CCC(=O)NC2=O)C3)CC1 (centres unmarked) [Compound D427]	< 10 nM
COc1cc(-c2cn(C)c(=O)c3cnccc23)cc(OC)c1CN1CCC2(CC1)CN(c1ccc3c(c1)C(=O)N(C1CCC(=O)NC1)C3)C2 (centres unmarked) [Compound D390]	> 1000 nM
COc1cc(-c2cc(C)c(=O)n(C)c2)cc(OC)c1CN1CC(/C=C/c2ccc3c(c2)C(=O)N(C2CCC(=O)NC2=O)C3)C1 (centres unmarked) [Compound D457]	< 10 nM
COc1cc(-c2cn(C)c(=O)c3cnn(C)c23)cc(OC)c1CN1CCC2(CC1)CN(c1ccc3c(c1)CN(C1CCC(=O)NC1=O)C3=O)C2 (centres unmarked) [Compound D411]	< 10 nM
CCCn1cc(-c2cc(OC)c(CN3CCC4(C3)CN(c3ccc5c(c3)C(=O)N(C3CCC(=O)NC3=O)C5)C4)c(OC)c2)cc(C(F)F)c1=O (centres unmarked) [Compound D401]	< 10 nM
COc1cc(-c2cc(C)c(=O)n(C)c2)cc(OC)c1CN1CC(C#Cc2ccc3c(c2)C(=O)N(C2CCC(=O)NC2=O)C3)C1 (centres unmarked) [Compound D438]	< 10 nM
COc1cc(-c2cn(C)c(=O)c3cnccc23)cc(OC)c1CN1CCC(c2cc(=O)n(C3CCC(=O)NC3=O)c(C)n2)CC1 (centres unmarked) [Compound D394]	> 1000 nM
C/C=C/Cn1cc(-c2cc(OC)c(CN3CCC4(CC3)CN(c3ccc5c(c3)C(=O)N(C3CCC(=O)NC3=O)C5)C4)c(OC)c2)c2cc(C)[nH]c2c1=O (centres unmarked) [Compound D467]	> 1000 nM
COc1cc(-c2cc(C(F)F)c(=O)n(C)c2)cc(OC)c1CN1CCN(CCC2CCN(c3ccc4c(c3)C(=O)N(C3CCC(=O)NC3=O)C4)CC2)CC1 (centres unmarked) [Compound D399]	< 10 nM
Cc1cc(-c2ccc(CN3CCN(c4ccc5c(c4)C(=O)N(C4CCC(=O)NC4=O)C5)CC3)cc2)cn(C)c1=O (centres unmarked) [Compound D460]	< 10 nM
